From PubChem BioAssay AID248 (DTP/NCI, 2004)
Values joined by “and” are separate entries in the source; they are usually repeats but may differ in a detail not shown here. Equal values may be shown once. Toxic doses and inconclusive results are not listed. No stated cut-off is given here; in the data, active means T/C of 150% or more; inactive means T/C below 125%.

Tested on: L1210 leukemia ip in BDF1 mice, survival T/C
Assay: NCI In Vivo Anticancer Drug Screen. Data for tumor model L1210 Leukemia (intraperitoneal) in B6D2F1 (BDF1) mice
Conditions: endpoint: mean survival time, higher = longer survival
Outline: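 Tumor cells were implanted, animals were treated, and survival was followed. The result divides the treated measurement by the vehicle-control measurement.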

[1] = dose: 100.0 mg/kg/injection, schedule: Q01DX001 (ip), vehicle: saline
[2] = dose: 100.0 mg/kg/injection, schedule: Q04DX003 (ip), vehicle: saline with Tween-80
[3] = dose: 200.0 mg/kg/injection, schedule: Q04DX003 (ip), vehicle: saline with Tween-80
[4] = dose: 400.0 mg/kg/injection, schedule: Q04DX003 (ip), vehicle: saline with Tween-80
[5] = dose: 50.0 mg/kg/injection, schedule: Q01DX001 (ip), vehicle: saline
[6] = dose: 200.0 mg/kg/injection, schedule: Q01DX001 (ip), vehicle: saline
[7] = dose: 400.0 mg/kg/injection, schedule: Q01DX001 (ip), vehicle: saline

Measured: T/C

CN1CCN(CCCN2c3ccccc3Sc3ccc(C(F)(F)F)cc32)CC1
inactive: dose: 3.12 mg/kg/injection, schedule: Q01DX009 (ip), vehicle: saline 93 % of control | dose: 6.25 mg/kg/injection, schedule: Q01DX009 (ip), vehicle: saline 98 % of control and 104 % of control and 118 % of control | dose: 9.0 mg/kg/injection, schedule: Q04DX003 (ip), vehicle: saline with Tween-80 112 % of control | dose: 9.3 mg/kg/injection, schedule: Q01DX009 (ip), vehicle: saline 101 % of control | dose: 10.0 mg/kg/injection, schedule: Q01DX009 (ip), vehicle: saline with Tween-80 106 % of control | dose: 12.5 mg/kg/injection, schedule: Q01DX009 (ip), vehicle: saline 113 % of control and 106 % of control | dose: 12.5 mg/kg/injection, schedule: Q04DX003 (ip), vehicle: saline 102 % of control | dose: 15.0 mg/kg/injection, schedule: Q01DX009 (ip), vehicle: saline with Tween-80 101 % of control | dose: 18.0 mg/kg/injection, schedule: Q01DX001 (ip), vehicle: saline with Tween-80 104 % of control | dose: 18.0 mg/kg/injection, schedule: Q04DX003 (ip), vehicle: saline with Tween-80 117 % of control | dose: 18.7 mg/kg/injection, schedule: Q01DX009 (ip), vehicle: saline 114 % of control | dose: 18.75 mg/kg/injection, schedule: Q04DX003 (ip), vehicle: saline 106 % of control | dose: 20.0 mg/kg/injection, schedule: Q04DX003 (ip), vehicle: saline with Tween-80 111 % of control | dose: 22.0 mg/kg/injection, schedule: Q01DX009 (ip), vehicle: saline with Tween-80 118 % of control | dose: 25.0 mg/kg/injection, schedule: Q01DX009 (ip), vehicle: acetone 107 % of control | dose: 25.0 mg/kg/injection, schedule: Q01DX009 (ip), vehicle: saline with Tween-80 108 % of control | dose: 25.0 mg/kg/injection, schedule: Q01DX009 (ip), vehicle: saline 102 % of control and 109 % of control | dose: 25.0 mg/kg/injection, schedule: Q04DX003 (ip), vehicle: acetone 100 % of control | dose: 25.0 mg/kg/injection, schedule: Q04DX003 (ip), vehicle: saline 103 % of control [middle of 4 runs] | dose: 30.0 mg/kg/injection, schedule: Q04DX003 (ip), vehicle: saline with Tween-80 119 % of control | dose: 33.0 mg/kg/injection, schedule: Q01DX009 (ip), vehicle: saline with Tween-80 123 % of control | dose: 37.0 mg/kg/injection, schedule: Q01DX001 (ip), vehicle: saline with Tween-80 104 % of control | dose: 37.5 mg/kg/injection, schedule: Q04DX003 (ip), vehicle: saline 96 % of control | dose: 44.0 mg/kg/injection, schedule: Q04DX003 (ip), vehicle: saline with Tween-80 116 % of control | dose: 50.0 mg/kg/injection, schedule: Q01DX009 (ip), vehicle: acetone 120 % of control | dose: 50.0 mg/kg/injection, schedule: Q04DX003 (ip), vehicle: acetone 100 % of control | dose: 50.0 mg/kg/injection, schedule: Q04DX003 (ip), vehicle: saline 111 % of control [middle of 4 runs] | dose: 66.0 mg/kg/injection, schedule: Q04DX003 (ip), vehicle: saline with Tween-80 108 % of control | dose: 75.0 mg/kg/injection, schedule: Q01DX001 (ip), vehicle: saline with Tween-80 113 % of control | dose: 75.0 mg/kg/injection, schedule: Q04DX003 (ip), vehicle: saline with Tween-80 119 % of control | dose: 75.0 mg/kg/injection, schedule: Q04DX003 (ip), vehicle: saline 102 % of control | [1] 101 % of control | dose: 100.0 mg/kg/injection, schedule: Q01DX009 (ip), vehicle: acetone 113 % of control | dose: 100.0 mg/kg/injection, schedule: Q04DX003 (ip), vehicle: acetone 121 % of control | dose: 100.0 mg/kg/injection, schedule: Q04DX003 (ip), vehicle: saline 99 % of control and 112 % of control | dose: 150.0 mg/kg/injection, schedule: Q01DX001 (ip), vehicle: saline with Tween-80 90 % of control

CCOc1ccc(NC(=O)CCCCCCCCC(=O)Nc2ccc(OCC)cc2)cc1
inactive: dose: 50.0 mg/kg/injection, schedule: Q01DX009 (ip), vehicle: saline with Tween-80 98 % of control | dose: 100.0 mg/kg/injection, schedule: Q01DX001 (ip), vehicle: saline with Tween-80 96 % of control | dose: 100.0 mg/kg/injection, schedule: Q04DX002 (ip), vehicle: saline with Tween-80 95 % of control and 110 % of control | [2] 88 % of control | dose: 200.0 mg/kg/injection, schedule: Q01DX001 (ip), vehicle: saline with Tween-80 91 % of control | dose: 200.0 mg/kg/injection, schedule: Q04DX002 (ip), vehicle: saline with Tween-80 100 % of control and 89 % of control | [3] 96 % of control | dose: 400.0 mg/kg/injection, schedule: Q01DX001 (ip), vehicle: saline with Tween-80 88 % of control | dose: 400.0 mg/kg/injection, schedule: Q01DX009 (ip), vehicle: saline with Tween-80 100 % of control and 108 % of control | dose: 400.0 mg/kg/injection, schedule: Q04DX002 (ip), vehicle: saline with Tween-80 94 % of control and 97 % of control | [4] 91 % of control

CCCCOCCOCCOC(OCCOCCOCCCC)c1ccc2c(c1)OCO2
inactive: dose: 100.0 mg/kg/injection, schedule: Q04DX002 (ip), vehicle: saline 88 % of control | dose: 200.0 mg/kg/injection, schedule: Q04DX002 (ip), vehicle: saline 92 % of control | dose: 400.0 mg/kg/injection, schedule: Q04DX002 (ip), vehicle: saline 95 % of control

O=C1C=CC2=Nc3ccccc3CCC2=C1
inactive: dose: 75.0 mg/kg/injection, schedule: Q01DX001 (ip), vehicle: steriod suspending solution 93 % of control | dose: 150.0 mg/kg/injection, schedule: Q01DX001 (ip), vehicle: steriod suspending solution 93 % of control | dose: 300.0 mg/kg/injection, schedule: Q01DX001 (ip), vehicle: steriod suspending solution 92 % of control

OCCc1cccc(O)c1
inactive: [5] 102 % of control | [1] 93 % of control | [6] 86 % of control | [7] 100 % of control

O=C1NC(=O)C(c2ccc3c(c2)OCO3)N1 (configuration not stated)
inactive: [2] 104 % of control | [3] 102 % of control | [4] 101 % of control

Nc1ncc(C[P+](c2ccccc2)(c2ccccc2)c2ccccc2)c(N)n1
inactive: dose: 12.5 mg/kg/injection, schedule: Q04DX003 (ip), vehicle: Klucel (hydroxypropylcellulose) (HPC) 102 % of control | dose: 25.0 mg/kg/injection, schedule: Q04DX003 (ip), vehicle: Klucel (hydroxypropylcellulose) (HPC) 112 % of control | dose: 50.0 mg/kg/injection, schedule: Q04DX003 (ip), vehicle: Klucel (hydroxypropylcellulose) (HPC) 105 % of control

COc1cc(C(=Nc2ccccc2)C(=Nc2ccccc2)c2cc(OC)c(OC)c(OC)c2)cc(OC)c1OC
inactive: dose: 25.0 mg/kg/injection, schedule: Q01DX009 (ip), vehicle: Klucel (hydroxypropylcellulose) (HPC) 98 % of control | dose: 50.0 mg/kg/injection, schedule: Q01DX009 (ip), vehicle: Klucel (hydroxypropylcellulose) (HPC) 91 % of control | dose: 100.0 mg/kg/injection, schedule: Q01DX009 (ip), vehicle: Klucel (hydroxypropylcellulose) (HPC) 90 % of control | dose: 100.0 mg/kg/injection, schedule: Q04DX003 (ip), vehicle: Klucel (hydroxypropylcellulose) (HPC) 100 % of control | dose: 200.0 mg/kg/injection, schedule: Q01DX009 (ip), vehicle: Klucel (hydroxypropylcellulose) (HPC) 95 % of control and 116 % of control | dose: 200.0 mg/kg/injection, schedule: Q04DX003 (ip), vehicle: Klucel (hydroxypropylcellulose) (HPC) 97 % of control | dose: 400.0 mg/kg/injection, schedule: Q01DX009 (ip), vehicle: Klucel (hydroxypropylcellulose) (HPC) 120 % of control | dose: 400.0 mg/kg/injection, schedule: Q04DX003 (ip), vehicle: Klucel (hydroxypropylcellulose) (HPC) 96 % of control

O=C1NC(=O)C(c2ccc(F)cc2)N1 (configuration not stated)
inactive: [5] 100 % of control | [1] 100 % of control | [6] 97 % of control | [7] 97 % of control

Nc1cc(Cl)nc(Cl)n1
inactive: dose: 29.0 mg/kg/injection, schedule: Q01DX Z (ip), vehicle: methylcellulose (MC) 89 % of control | dose: 45.0 mg/kg/injection, schedule: Q01DX Z (ip), vehicle: methylcellulose (MC) 100 % of control | dose: 67.0 mg/kg/injection, schedule: Q01DX Z (ip), vehicle: methylcellulose (MC) 96 % of control | dose: 100.0 mg/kg/injection, schedule: Q01DX Z (ip), vehicle: methylcellulose (MC) 92 % of control

CCCCCCCCN(c1ccc(C#N)cc1)S(=O)(=O)c1ccc(C)cc1
inactive: dose: 75.0 mg/kg/injection, schedule: Q01DX009 (ip), vehicle: Klucel (hydroxypropylcellulose) (HPC) 92 % of control | dose: 150.0 mg/kg/injection, schedule: Q01DX009 (ip), vehicle: Klucel (hydroxypropylcellulose) (HPC) 87 % of control | dose: 300.0 mg/kg/injection, schedule: Q01DX009 (ip), vehicle: Klucel (hydroxypropylcellulose) (HPC) 97 % of control
